Test results as given in US12453776B2, “Lipids and compositions for the delivery of therapeutics” (ARBUTUS BIOPHARMA CORPORATION, priority 2008, dated 2025).

System: Factor VII
Experiment: In vivo FVII knockdown by FVII siRNA lipid formulations (chromogenic Factor VII assay, serum 24 h after i.v. dosing)
Settings: female C57Bl/6 mice, i.v. tail vein, cationic lipid/DSPC/cholesterol/PEG-lipid 40/10/40/10 with FVII siRNA, no unit at the values, method gives ED50 in mg/kg
Protocol: Cationic lipid containing particles were made using the preformed vesicle method. Cationic lipid, DSPC, cholesterol and PEG-lipid were solubilised in ethanol at a molar ratio of 40/10/40/10, respectively. The lipid mixture was added to an aqueous buffer (50 mM citrate, pH 4) with mixing to a final ethanol and lipid concentration of 30% (vol/vol) and 6.1 mg/mL respectively and allowed to equilibrate at room temperature for 2 min before extrusion. The hydrated lipids were extruded through two stacked 80 nm pore-sized filters (Nuclepore) at 22° C. using a Lipex Extruder (Northern Lipids, Vancouver, BC) until a vesicle diameter of 70-90 nm, as determined by Nicomp analysis, was obtained. This generally required 1-3 passes.
The FVII siRNA (solubilised in a 50 mM citrate, pH 4 aqueous solution containing 30% ethanol) was added to the vesicles, pre-equilibrated to 35° C., at a rate of ˜5 mL/min with mixing. […] The final encapsulated siRNA-to-lipid ratio was determined after removal of unencapsulated siRNA using size-exclusion spin columns or ion exchange spin columns.
Test formulations were initially assessed for their FVII knockdown in female 7-9 week old, 15-25 g, female C57Bl/6 mice at 0.1, 0.3, 1.0 and 5.0 mg/kg with 3 mice per treatment group. […] Mice were weighed and the appropriate dosing volumes calculated (10 μl/g body weight). […]

Row | Structure (SMILES) | ED50 (dose resulting in a 50% reduction in plasma FVII levels compared to control animals) [mg/kg]
1 | CCCCC/C=C\C/C=C\CCCCCCCCC(CCCCCCCC/C=C\C/C=C\CCCCC)OC(=O)CCCN(CC)CC [DLin-M-C3-DEA] | 0.3
2 | CCCCC/C=C\C/C=C\CCCCCCCCC(CCCCCCCC/C=C\C/C=C\CCCCC)OC(=O)CCCN(C(C)C)C(C)C [DLin-M-C3-DIPA] | 4.5
